Target: T1, EntE (Escherichia coli, UniProt P10378)
T1 sequence (P10378 1-536): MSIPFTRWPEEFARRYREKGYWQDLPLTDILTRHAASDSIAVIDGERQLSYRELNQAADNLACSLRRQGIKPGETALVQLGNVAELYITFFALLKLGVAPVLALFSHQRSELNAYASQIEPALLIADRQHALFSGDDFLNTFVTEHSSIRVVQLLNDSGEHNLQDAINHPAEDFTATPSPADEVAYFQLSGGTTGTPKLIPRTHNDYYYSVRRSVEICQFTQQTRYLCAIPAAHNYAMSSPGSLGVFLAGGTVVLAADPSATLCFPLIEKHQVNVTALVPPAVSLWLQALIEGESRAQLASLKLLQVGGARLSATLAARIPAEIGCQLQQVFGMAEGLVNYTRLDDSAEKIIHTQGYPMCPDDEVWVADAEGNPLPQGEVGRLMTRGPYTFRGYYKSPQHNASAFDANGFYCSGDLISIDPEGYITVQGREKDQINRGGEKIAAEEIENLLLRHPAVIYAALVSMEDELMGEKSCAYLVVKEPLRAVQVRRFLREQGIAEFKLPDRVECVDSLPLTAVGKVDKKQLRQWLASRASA
Assay: enzyme inhibition kinetics versus ATP
Type: biochemical

Q: Which Ki does the source give for Nc1ncnc2c1ncn2[C@@H]1O[C@H](COP(=O)(O)OP(=O)(O)OP(=O)(O)OP(=O)(O)OC[C@H]2O[C@@H](n3cnc4c(N)ncnc43)[C@H](O)[C@@H]2O)[C@@H](O)[C@H]1O [Ap4A, P^1, P^3-diadenosine-5′-tetraphosphate] here?
A: Its Ki is 1200 ± 100 nM.

— paper PMC2783875 (Biochemistry, 2009)
